Experimental data published in patent US20260235618A1, “MICROBEADS WITH RATIOMETRIC LANTHANIDE ENCODING FOR DRUG SCREENING” (CZ Biohub SF, LLC, priority 2022, published 2026).
Entries after “also recorded” stand apart in the source; their conditions may differ.

Target: Cdc20 (Homo sapiens, UniProt Q12834)
Assay: Multiplexed binding assay of Cdc20 to peptides on spectrally encoded beads, with and without small molecule (per-bead fluorescence of labeled antibody)
Details: bead-bound D-Box peptides; per-bead fluorescence intensity of fluorescently-labeled antibody recognizing bound Cdc20; vs control without Apcin (FIG. 2)
From the text: FIG. 2 provides data illustrating the effect of the small molecule Apcin on the binding between Cdc20 and different peptide sequences. Binding was quantified by measuring the per-bead fluorescence intensity of a fluorescently-labeled antibody that recognizes bound Cdc20. […] The control is the left bar for each of the peptides.
In one illustrative assay, a library of peptide-bound microbeads is generated by synthesizing binding site peptides directly on microbeads. Beads are pooled and then incubated with the protein of interest in the presence or absence of a modulator or candidate biding agent. The beads are then typically washed and the amount of signal from a label directly or indirectly attached to the protein of interest that is bound to each bead is determined. […]
For illustration, binding site peptides can be from proteins that are binding partners of any protein of interest, e.g., a signaling protein. […] In some embodiments, such a bead, or pool of such beads, is deposited in a compartment, e.g., a microwell plate such as a 96-well plate, with a signaling protein and a candidate agent to be evaluated, such as a small molecule. […] Use of multiple peptide sequences (e.g., for different binding sites or different affinities) can serve as an internal control and provide the ability to quantitatively assess a loss of signal without concerns regarding assay quality (e.g., FIG. 2). […]

Chain of Cdc20 (Q12834 whole entry, species assumed): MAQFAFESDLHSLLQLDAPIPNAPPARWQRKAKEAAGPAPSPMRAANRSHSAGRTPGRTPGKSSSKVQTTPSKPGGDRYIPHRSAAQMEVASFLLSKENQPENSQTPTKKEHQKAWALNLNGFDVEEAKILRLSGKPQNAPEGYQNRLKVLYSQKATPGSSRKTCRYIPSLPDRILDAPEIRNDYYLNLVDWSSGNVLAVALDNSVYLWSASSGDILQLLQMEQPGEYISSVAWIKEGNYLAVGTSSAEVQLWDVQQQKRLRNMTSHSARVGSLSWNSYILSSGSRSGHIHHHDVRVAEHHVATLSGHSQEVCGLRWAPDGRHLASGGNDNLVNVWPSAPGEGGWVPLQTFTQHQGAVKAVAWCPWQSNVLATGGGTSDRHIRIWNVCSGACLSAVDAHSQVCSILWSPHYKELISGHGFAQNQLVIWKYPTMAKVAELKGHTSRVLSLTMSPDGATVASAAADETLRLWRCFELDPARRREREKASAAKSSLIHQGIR

## Cc1ncc([N+](=O)[O-])n1CCOC(=O)NC(Nc1ncccn1)C(Cl)(Cl)Cl (stereo not shown) [Apcin]
  Effect on binding between Cdc20 and D-Box-containing peptide sequences: blocks the binding site between Cdc20 and D-Box-containing sequences; also recorded: selectively prevented the binding of Cdc20 to D-Box-containing peptides
